Values quoted from earlier work, collected in US8092782B2, “Polybiotin compounds of magnetic resonance imaging and drug delivery” (priority 2003, dated 2012).

solubility in water: insoluble
Substance: triacetyl-beta-cyclodextrin
